The test system of one assay is P388. The assay can be described thus: Growth inhibition of mouse P388 cells. Type of assay: functional.
Another assay deals with MCF7. The assay can be described thus: Growth inhibition of human MCF7 cells. Type of assay: functional.

Structures are written as SMILES. Values after ≈ are worked out from the molar mass of the structure shown.

The term GI50 denotes the concentration giving 50% growth inhibition. A lower GI50 goes with more potent growth inhibition.

In the assay on P388, `CCC(C)[C@@H]1OC(=O)[C@H](C)OC(=O)[C@@H](NC(=O)c2cccc(N)c2O)[C@@H](C)OC(=O)[C@H](CC(C)C)OC(=O)C(C)(C)C(=O)[C@H](CC(C)C)NC1=O` (some centres undefined) [KITASTATIN] displayed a GI50 of 0.045 µg/mL (≈ 0.0625 µM).
In the assay with P388, `CCC(C)[C@@H]1OC(=O)[C@H](C)OC(=O)[C@@H](NC(=O)c2cccc(NC=O)c2O)[C@@H](C)OC(=O)[C@H](CC(C)C)OC(=O)C(C)(C)C(=O)[C@H](CC(C)C)NC1=O` (some centres undefined) [RESPIRANTIN] showed a GI50 of 0.0037 µg/mL (≈ 0.00495 µM).
On to `CCC(C)[C@@H]1OC(=O)[C@H](C)OC(=O)[C@@H](NC(=O)c2cccc(NC=O)c2O)[C@@H](C)OC(=O)[C@H](C(C)C)OC(=O)C(C)(C)C(=O)[C@H](CC(C)C)NC1=O` (some centres undefined), for which the GI50 in the assay with P388 is 0.033 µg/mL (≈ 0.045 µM); with MCF7, 0.00062 µg/mL (≈ 0.000845 µM).

The values above are taken from ChEMBL document CHEMBL1146237, “Antineoplastic agents. 561. Total synthesis of respirantin” (2007).
